Patent publication US11554182B2, “Macrocyclic complexes of alpha-emitting radionuclides and their use in targeted radiotherapy of cancer” (CORNELL UNIVERSITY, priority 2017, dated 2023)

Tests used:
[1] = Kinetic inertness of ^225Ac complex: transmetalation challenge with La^3+; format: physicochemical; settings: 50-fold excess of La^3+, macropa 0.59 μM, RT, over 7 days
Experimental: General. Stock solutions of La(NO3)3 (0.001 M or 0.1 M) were prepared in H2O. To the radiolabeled samples containing macropa (10 μL of 10^−5 M stock; 1.0×10^−10 moles) or DOTA (10 μL of 10^−3 M stock; 1.0×10^−8 moles) and ^225Ac (10 μL, 26 kBq) in NH4OAc buffer (pH 6, 0.15 M, 150 μL), a 50-fold mole excess of La^3+ was added (5 μL of 0.001 M or 0.1 M stock were added to solutions containing macropa and DOTA, respectively). The solutions were kept at room temperature and analyzed by iTLC at several time points over the course of 8 days. The iTLC plates were developed using citric acid (0.05 M, pH 5) as the eluent. Under these conditions, [^225Ac(macropa)]^+ and [^225Ac(DOTA)]^− remained at the baseline (RF=0) and any unchelated ^225Ac (^225Ac-citrate) migrated with the solvent front (RF=1). Percent of complex remaining intact was calculated by integrating area under the peaks on the radiochromatogram and dividing the counts associated with the ^225Ac-complex (RF=0) by the total counts integrated along the length of the iTLC plate.
(§1) The long half-life of ^225Ac necessitates its stable complex retention in vivo to avoid off-target damage to normal tissues arising from the release of free ^225Ac^3+. Furthermore, the stability of ^225Ac complexes against transmetalation and transchelation needs to be high. […]

[2] = Stability of [^225Ac(macropa)]^+ in human serum (radio-TLC); format: in vitro ADME
Experimental: […]. [^225Ac(macropa)]^+ and [^225Ac(DOTA)]^− were prepared using 10^−5 M and 10^−3 M stock solutions (10 μL) of macropa and DOTA, respectively, to give final ligand concentrations of 5.9×10^−7 M (macropa) and 5.9×10^−5 M (DOTA). After confirming a radiochemical yield of >90% by TLC using 0.4 M sodium citrate (pH 4) containing 10% MeOH as the mobile phase, 160 μL of human serum (an equal volume based on labeling reaction volume) were added to each radiolabeled solution. A control solution was also prepared in which water was substituted for ligand. The solutions were monitored over the course of 8 days by iTLC. The plates were developed with EDTA (50 mM, pH 5) as the eluent. Under these conditions, [^225Ac(macropa)]^+ and [^225Ac(DOTA)]^− complexes remained at the baseline (RF=0) and any ^225Ac (^225Ac-EDTA) that had been transchelated by serum migrated with the solvent front (RF=1). Percent of complex remaining intact was calculated.
as §1, with “high. To determine the kinetic inertness, [^225Ac(macropa)]^+ was challenged with La^3+ because of the established high affinity of macropa for this metal ion.” for “high.”

SMILES: O=C([O-])c1cccc(CN2CCOCCOCCN(Cc3cccc(C(=O)[O-])n3)CCOCCOCC2)n1.[225Ac+3] [[^225Ac(macropa)]^+]
- ^225Ac complex remaining intact [1]: 98%
- time ^225Ac^3+ remains complexed in human serum [2]: at least 8 days
